Test results taken from patent US4347176A, “Compounds and methods of making same” (Burroughs Wellcome Co., priority 1980, dated 1982).

How the values were obtained:
[1] = test system: antisera raised by presenting a suitable bupropion variant-carrier material conjugate to the immune system of host animals; experiment: competition of bupropion with radiolabeled competitor for binding to antisera; design: species or system rabbit
Protocol: (§1) Samples of six standard solutions of bupropion in blank plasma having concentrations of 0.39 to 50 ng/ml) are pipetted (0.1 ml each) in duplicate into 12×75 mm plastic tubes. Duplicate non-specific binding (no antibody) and maximum binding tubes (no unlabeled bupropion) receive 0.1 ml blank plasma. Spiked plasma controls at several concentrations of (e.g., 1.0, 10.0, and 100 ng/ml) and plasma samples for assay (diluted into the standard range with blank plasma if necessary) are assayed in duplicate. After being placed in an ice bath, all tubes receive (in order) 0.2 ml ^3 H bupropion (416 pg. containing approximately 10^4 cpm) and 0.7 ml anti-bupropion serum (raised to a ring-functionalized immunogen according to the present invention) (at pre-determined dilutions such that approximately 40% of the ^3 H bupropion added is bound), both in assay buffer (0.05 M phosphate-bufferedisotonic saline, containing 0.01 M EDTA and 0.1% gelatin, pH 7.0). […] The supernatants, containing antibody-bound ^3 H bupropion are carefully decanted into liquid scintillation cocktail for quantitation of ^3 H. After counts (minus average nonspecific binding cpm) are expressed as percentages of average maximum binding cpm, bupropion concentrations in plasma samples and spiked controls are read from a standard curve (log concentration vs percent average maximum binding).

anti-compound 1 sera = experiment: RIA of bupropion using 125I-labeled competitor with anti-compound 1 sera: sensitivity; format: binding, rabbit (preferred host animal); settings: in conjunction with anti-compound 1 sera; compared with the other iodinated competitors, FIG. 2
Protocol: as §1, with “binding). […]” for “binding).”

[2] = test system: anti-compound 2 sera, and anti-compound 3 sera; experiment: RIA of bupropion using 125I-labeled competitors with anti-compound 2 sera and anti-compound 3 sera: sensitivity; format: binding, rabbit (preferred host animal); settings: with either anti-compound 2 or anti-compound 3 sera; standard curves, FIG. 2
Protocol: as §1, with “7.0). Non-specific binding tubes receive 0.7 ml assay buffer.) Following incubation either at 25° C. for 2 hours or overnight at 4° C., bound and free ^3 H bupropion are separated by incubation for 10 min at 0° C. with 0.5 ml ice-cold dextran-coated charcoal solution (0.25% dextran, 5 mg/ml charcoal, in assay buffer) followed by centrifugation for 10 minutes at 4° C.” for “7.0).”
RIA's have been run according to the method of Example X utilizing ^125 I labeled bupropion competitors of the present invention in conjunction with antisera obtained following immunization with immunogens of the present invention. […] Following the ethanol precipitation of antibody-bound ^125 I-bupropion competitor at equilibrium, ^125 I in the protein pellets was quantified.

CC(NC(C)(C)C)C(=O)c1cccc(Cl)c1 (racemic) [bupropion, (±)-2-tert-butylamino-3'-chloropropiophenone]
competition with radiolabeled bupropion or competitor for binding to antisera [1]: successfully compete

CC(NC(C)(C)C)C(=NOCC(=O)NCCc1ccc(O)c([125I])c1)c1cccc(Cl)c1 (stereo not drawn) [Compound 6, α-t-Butylamino-3-chloropropiophenone-carboxymethyloxime-^125 I-tyramine amide]
RIA sensitivity (anti-compound 1 sera): least sensitive RIA

CC(NC(C)(C)C)C(=O)c1ccc(OCC(=O)NCCc2ccc(O)c([125I])c2)c(Cl)c1 (stereo not drawn) [Compound 7, α-t-Butylamino-3-chloro-4-carbomethoxypropiophenone-^125 I-tyramine amide]
RIA sensitivity relative to the compound 10 (3H bupropion) assay system [2]: sensitivity approximately equal

CC(NC(C)(C)C)C(=O)c1ccc(CCCOC(=O)CCC(=O)NCCc2ccc(O)c([125I])c2)c(Cl)c1 (stereo not drawn) [Compound 8, α-t-butylamino-3-chloro-4-γ-hydroxypropylpropiophenonehemisuccinate-^125 I-tyramine amide]
RIA sensitivity relative to the compound 10 (3H bupropion) assay system [2]: sensitivity approximately equal

CC(NC(C)(C)C)C(=O)c1ccc(O)c([125I])c1 (stereo not drawn) [Compound 9, ^125 I-α-t-Butylamino-3-iodo-4-hydroxypropiophenone]
RIA sensitivity relative to the compound 10 (3H bupropion) assay system [2]: approximately ten times more sensitive
